Measurements published in US8754119B2, “Use of rotigotine for the treatment of depression” (priority 2003, dated 2014).
“Also recorded” adds a separate entry of the source.

Columns and labels:
rats = assay: forced swim test; assay type: in vivo; conditions: subcutaneously applied
Source text: The “forced swim test” is an animal model, in which depressive episodes are triggered by acute stress. In this case, rats are forced to swim in a limited space. After initial attempts to save themselves, in which the animals grasp the hopelessness, they lapse into immobility. On repetition of the experiment, the animals remain immobile from the beginning of the experiment. In the event of pre-treatment with antidepressants, the period of immobility is shortened during the repetition experiment; the animals generally start searching and escape movements directly after transfer into the water basin (Porsolt, Biomedicine 30, 1979, 139).

5HT1A receptor [1] = target: T1, 5HT1A receptor (Homo sapiens, UniProt P08908); assay: binding to 5HT1A receptor
T1 sequence (P08908 1-422): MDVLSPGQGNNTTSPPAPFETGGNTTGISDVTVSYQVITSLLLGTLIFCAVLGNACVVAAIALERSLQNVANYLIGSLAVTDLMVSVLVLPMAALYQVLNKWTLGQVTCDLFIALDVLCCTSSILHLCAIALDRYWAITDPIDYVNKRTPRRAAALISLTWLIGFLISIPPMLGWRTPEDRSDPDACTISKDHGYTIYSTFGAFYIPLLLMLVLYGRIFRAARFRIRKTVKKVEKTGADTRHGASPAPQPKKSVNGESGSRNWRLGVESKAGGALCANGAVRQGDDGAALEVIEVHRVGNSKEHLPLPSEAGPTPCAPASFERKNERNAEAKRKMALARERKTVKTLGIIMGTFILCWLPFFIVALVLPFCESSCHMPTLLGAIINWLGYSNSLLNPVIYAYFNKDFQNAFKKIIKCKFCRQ

5HT1A receptor [2] = target: T1, 5HT1A receptor; assay: functional activity on 5HT1A receptors; assay type: biochemical
a2 receptors [3] = assay: functional action on a2 receptors; assay type: biochemical
a2 receptors [4] = assay: binding to a2 receptors
Sprague-Dawley rats = assay: bulbectomy study (olfactory bulb removed, locomotor activity); assay type: in vivo
Experimental: In a further animal model (Embodiment 3) an investigation was made as to whether the antidepressive effects of rotigotine can be distinguished from a general motor stimulation. In this case, rotigotine was administered to rats, whose olfactory bulb had been removed on both sides. The removal of the olfactory bulb leads in the untreated control group to an adaptive hyperactivity. It is known from the literature that chronically administered antidepressants lead to a reduction in movement activity of the animals in this model, while stimulants further increase the motor activity (van Riezen H et al., Br. J. Pharmacol. 60(4), 1977, 521; Kelly J P et al., Pharmacol. Ther. 74(3), 1997, 299). Therefore, it is possible to discriminate between antidepressive and non-specific stimulatory effects of an active ingredient with this model. […] The bulbectomy study was carried out on Sprague-Dawley rats. A group, which had seemingly been operated on, served as a control group and was operated on without the olfactory bulb being removed. 14 days after the operation, the rats were treated with excipients, rotigotine depot suspension (every second day) or imipramine. On test days, the rats were taken onto a test field and left to themselves for 3 minutes. The locomotor activities of the animals were measured here with the aid of the number of lines crossed.

Question: Which period of immobility (rats) does the source give for `CCCN(CCc1cccs1)C1CCc2c(O)cccc2C1` (single isomer, unassigned; (-)) [rotigotine, (−)-5,6,7,8-tetrahydro-6-[propyl[2-(2-thienyl)ethyl]amino]-1-naphthol] here?
Answer: clear reduction in the immobility period

Question: What about the period of immobility (rats; listed as Rotigotine) of the same molecule?
Answer: significantly shortened period of immobility

Question: And the “binding to the 5HT1A receptor” value (5HT1A receptor [1])?
Answer: binds

Question: And the “mode of action on 5HT1A receptors” value (5HT1A receptor [2])?
Answer: agonistic activity

Question: What about the “mode of action on a2 receptors” value (a2 receptors [3]) of the same molecule?
Answer: acts antagonistically

Question: What about the “binding to a2 receptors” value (a2 receptors [4]) of the same molecule?
Answer: binds

Question: What about the bulbectomy-induced locomotor hyperactivity (Sprague-Dawley rats; bulbectomised rats, low doses) of the same molecule?
Answer: virtually complete suppression of the bulbectomy-induced locomotor hyperactivity; also recorded: significantly reduces the motor hyperactivity

Question: What about the locomotor activity (Sprague-Dawley rats; higher doses, bulbectomised and control animals) of the same molecule?
Answer: stimulatory dopamine-agonistic effect predominates; also recorded: non-specific activation of the locomotor activity dominates
